Active and inactive are the calls of the source. No cut-off for these calls is given here.

The record followed here is ChEMBL document CHEMBL1156143, “Structure-activity relationship studies of chalcone leading to 3-hydroxy-4,3',4',5'-tetramethoxychalcone and its analogues as potent nuclear factor kappaB inhibitors and their anticancer activities” (J Med Chem, 2009).

Data set [1] in a line: Inhibition of TNFalpha induced NF-kappaB activation in human A549 cells by luciferase reporter gene assay. The data set is classed as cell-based. On the technique in general: Reporter assays use an easily measured gene product as a stand-in for the process of interest.
The test system of data set [2] is A549. The data set can be described thus: Cytotoxicity against human A549 cells after 48 hrs by fluorescence assay. The data set is classed as functional. The note with it: A549, 48 h.
Data set [3] relates to NCI-H2009. Description: Cytotoxicity against human NCI-H2009 cells after 48 hrs by fluorescence assay. The note with it: NCI-H2009, 48 h. In kind it is functional.
The target in data set [4] is Proto-oncogene tyrosine-protein kinase Src (Homo sapiens) (UniProt P12931). The data set can be described thus: Inhibition of c-Src at 10 uM.
Data set [5] deals with Mitogen-activated protein kinase kinase kinase 7 (TAK1) (Homo sapiens) (UniProt O43318). The data set can be described thus: Inhibition of TAK1 at 10 uM.
For data set [6], the target named is T1, Inhibitor of nuclear factor kappa-B kinase subunit beta (Homo sapiens) (UniProt O14920).
T1 sequence (whole entry): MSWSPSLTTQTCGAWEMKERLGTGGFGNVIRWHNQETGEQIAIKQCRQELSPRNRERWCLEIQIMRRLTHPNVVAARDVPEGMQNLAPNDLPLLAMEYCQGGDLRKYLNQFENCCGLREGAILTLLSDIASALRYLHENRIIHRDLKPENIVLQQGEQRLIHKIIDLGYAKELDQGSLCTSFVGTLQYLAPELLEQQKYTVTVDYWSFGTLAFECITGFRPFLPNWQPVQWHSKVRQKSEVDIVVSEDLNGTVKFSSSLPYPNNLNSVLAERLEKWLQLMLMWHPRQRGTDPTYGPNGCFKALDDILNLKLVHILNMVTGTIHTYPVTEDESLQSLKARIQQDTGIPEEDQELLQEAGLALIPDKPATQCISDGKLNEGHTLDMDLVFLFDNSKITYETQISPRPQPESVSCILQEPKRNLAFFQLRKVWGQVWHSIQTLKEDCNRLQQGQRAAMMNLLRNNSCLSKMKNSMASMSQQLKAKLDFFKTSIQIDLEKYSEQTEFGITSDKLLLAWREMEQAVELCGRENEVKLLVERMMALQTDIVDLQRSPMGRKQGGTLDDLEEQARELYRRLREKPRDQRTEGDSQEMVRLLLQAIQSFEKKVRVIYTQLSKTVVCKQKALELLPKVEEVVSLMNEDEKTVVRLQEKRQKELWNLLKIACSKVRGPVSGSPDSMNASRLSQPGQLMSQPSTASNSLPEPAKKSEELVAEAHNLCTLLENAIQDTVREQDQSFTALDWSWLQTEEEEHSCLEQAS
The data set can be described thus: Inhibition of IKK-beta at 10 uM.

Data set [7] has as its system Mus musculus. Description: Toxicity in SCID mouse xenografted with human NCI-H2009 cells assessed as increase in body weight at 1 mg/day, ip treated 6 days in a week for 5 weeks. In kind it is organism-based. The following applies: in vivo.
Data set [8] relates to Mus musculus. The data set can be described thus: Toxicity in SCID mouse xenografted with human NCI-H2009 cells assessed as necropsy at 1 mg/day, ip treated 6 days in a week for 5 weeks. The note with it: in vivo. In kind it is organism-based.
In data set [9] the target is Interleukin-1 receptor-associated kinase 1 (Homo sapiens) (UniProt P51617). Description: Inhibition of IRAK1 at 10 uM.
Data set [10] relates to Mus musculus. Description: Toxicity in SCID mouse xenografted with human NCI-H2009 cells at 1 mg/day, ip treated 6 days in a week for 5 weeks. The data set is classed as organism-based. The note with it: in vivo. (A xenograft is tissue or cells of one species grown in another, often human tumour cells in immunodeficient mice.)
Data set [11] concerns the target T2, Inhibitor of nuclear factor kappa-B kinase subunit alpha (Homo sapiens) (UniProt O15111).
T2 sequence (whole entry): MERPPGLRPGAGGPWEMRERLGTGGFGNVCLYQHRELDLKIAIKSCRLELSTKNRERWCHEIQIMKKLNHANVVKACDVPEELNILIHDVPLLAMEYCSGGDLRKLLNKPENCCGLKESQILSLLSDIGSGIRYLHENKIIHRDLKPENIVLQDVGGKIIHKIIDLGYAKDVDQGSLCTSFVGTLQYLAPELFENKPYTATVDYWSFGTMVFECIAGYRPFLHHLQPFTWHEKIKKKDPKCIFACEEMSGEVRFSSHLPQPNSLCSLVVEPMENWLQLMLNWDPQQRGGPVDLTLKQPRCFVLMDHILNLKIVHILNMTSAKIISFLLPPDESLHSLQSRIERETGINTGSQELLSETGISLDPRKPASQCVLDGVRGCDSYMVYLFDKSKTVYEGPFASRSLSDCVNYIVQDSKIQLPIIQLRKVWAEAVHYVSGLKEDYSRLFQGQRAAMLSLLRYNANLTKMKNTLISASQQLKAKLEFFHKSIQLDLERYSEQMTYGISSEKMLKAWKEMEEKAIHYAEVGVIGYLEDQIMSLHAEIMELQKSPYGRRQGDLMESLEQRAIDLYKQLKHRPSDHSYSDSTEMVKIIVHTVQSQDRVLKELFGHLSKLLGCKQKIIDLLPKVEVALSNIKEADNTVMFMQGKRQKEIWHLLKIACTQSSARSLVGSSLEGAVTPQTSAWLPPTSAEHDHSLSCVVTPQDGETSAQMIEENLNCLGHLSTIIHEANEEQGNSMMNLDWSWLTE
Description: Inhibition of IKKalpha at 10 uM.

Data set [12] deals with T3, Interleukin-1 receptor-associated kinase 4 (Homo sapiens) (UniProt Q9NWZ3).
T3 sequence (whole entry): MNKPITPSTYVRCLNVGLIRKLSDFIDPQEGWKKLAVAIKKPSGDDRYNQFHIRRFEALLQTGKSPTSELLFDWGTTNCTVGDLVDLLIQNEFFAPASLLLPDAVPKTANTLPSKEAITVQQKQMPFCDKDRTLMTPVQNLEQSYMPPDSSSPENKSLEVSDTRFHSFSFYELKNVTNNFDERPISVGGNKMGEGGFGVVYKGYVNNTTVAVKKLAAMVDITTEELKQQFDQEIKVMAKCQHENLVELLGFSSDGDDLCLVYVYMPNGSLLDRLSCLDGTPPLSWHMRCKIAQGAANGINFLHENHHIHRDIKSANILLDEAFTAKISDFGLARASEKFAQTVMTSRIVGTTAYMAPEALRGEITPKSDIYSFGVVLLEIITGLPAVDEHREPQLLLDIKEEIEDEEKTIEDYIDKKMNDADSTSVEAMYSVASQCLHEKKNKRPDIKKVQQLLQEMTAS
The data set can be described thus: Inhibition of IRAK4 at 10 uM.

Data set [13] deals with NCI-H2009. The data set can be described thus: Anticancer activity against human NCI-H2009 cells xenografted in SCID mouse assessed as suppression of tumor growth at 1 mg/day, ip treated 6 days in a week for 5 weeks. The data set is classed as functional.

Sequence of Interleukin-1 receptor-associated kinase 1 (Homo sapiens) (P51617 whole entry, looked up): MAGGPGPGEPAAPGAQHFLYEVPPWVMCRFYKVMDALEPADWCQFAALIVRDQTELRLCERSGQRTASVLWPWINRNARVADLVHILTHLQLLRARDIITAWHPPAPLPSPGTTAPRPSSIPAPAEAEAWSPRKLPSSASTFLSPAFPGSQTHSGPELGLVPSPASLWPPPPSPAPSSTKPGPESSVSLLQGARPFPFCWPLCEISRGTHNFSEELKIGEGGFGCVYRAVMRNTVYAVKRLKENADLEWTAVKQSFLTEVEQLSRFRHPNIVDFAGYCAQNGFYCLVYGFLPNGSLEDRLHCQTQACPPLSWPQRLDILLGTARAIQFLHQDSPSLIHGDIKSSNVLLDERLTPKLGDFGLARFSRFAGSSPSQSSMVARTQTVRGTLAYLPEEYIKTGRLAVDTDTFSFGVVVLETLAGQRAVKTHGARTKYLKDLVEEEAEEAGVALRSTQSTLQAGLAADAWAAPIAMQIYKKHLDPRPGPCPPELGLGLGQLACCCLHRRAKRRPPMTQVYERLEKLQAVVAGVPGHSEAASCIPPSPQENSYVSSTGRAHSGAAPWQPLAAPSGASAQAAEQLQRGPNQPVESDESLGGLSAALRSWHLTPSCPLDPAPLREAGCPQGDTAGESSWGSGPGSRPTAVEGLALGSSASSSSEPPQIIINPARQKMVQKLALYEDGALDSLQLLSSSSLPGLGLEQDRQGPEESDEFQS
Sequence of Mitogen-activated protein kinase kinase kinase 7 (TAK1) (Homo sapiens) (O43318 whole entry, looked up): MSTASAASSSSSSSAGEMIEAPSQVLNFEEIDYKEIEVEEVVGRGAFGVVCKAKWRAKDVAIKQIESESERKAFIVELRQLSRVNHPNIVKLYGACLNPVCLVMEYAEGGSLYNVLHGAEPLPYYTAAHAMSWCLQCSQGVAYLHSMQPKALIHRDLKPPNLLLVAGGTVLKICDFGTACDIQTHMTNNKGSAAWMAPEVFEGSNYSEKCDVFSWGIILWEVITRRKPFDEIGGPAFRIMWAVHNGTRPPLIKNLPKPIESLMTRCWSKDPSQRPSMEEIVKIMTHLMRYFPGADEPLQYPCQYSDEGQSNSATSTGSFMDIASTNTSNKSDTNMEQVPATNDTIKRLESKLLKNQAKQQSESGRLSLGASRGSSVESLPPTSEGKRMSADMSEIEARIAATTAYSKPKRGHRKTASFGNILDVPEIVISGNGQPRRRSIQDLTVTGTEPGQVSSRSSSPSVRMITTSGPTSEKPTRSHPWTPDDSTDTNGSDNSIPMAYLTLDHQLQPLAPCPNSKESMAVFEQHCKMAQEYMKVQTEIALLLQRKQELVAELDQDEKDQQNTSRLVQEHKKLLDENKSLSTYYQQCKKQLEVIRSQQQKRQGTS
Sequence of Proto-oncogene tyrosine-protein kinase Src (Homo sapiens) (P12931 2-536 limits assumed): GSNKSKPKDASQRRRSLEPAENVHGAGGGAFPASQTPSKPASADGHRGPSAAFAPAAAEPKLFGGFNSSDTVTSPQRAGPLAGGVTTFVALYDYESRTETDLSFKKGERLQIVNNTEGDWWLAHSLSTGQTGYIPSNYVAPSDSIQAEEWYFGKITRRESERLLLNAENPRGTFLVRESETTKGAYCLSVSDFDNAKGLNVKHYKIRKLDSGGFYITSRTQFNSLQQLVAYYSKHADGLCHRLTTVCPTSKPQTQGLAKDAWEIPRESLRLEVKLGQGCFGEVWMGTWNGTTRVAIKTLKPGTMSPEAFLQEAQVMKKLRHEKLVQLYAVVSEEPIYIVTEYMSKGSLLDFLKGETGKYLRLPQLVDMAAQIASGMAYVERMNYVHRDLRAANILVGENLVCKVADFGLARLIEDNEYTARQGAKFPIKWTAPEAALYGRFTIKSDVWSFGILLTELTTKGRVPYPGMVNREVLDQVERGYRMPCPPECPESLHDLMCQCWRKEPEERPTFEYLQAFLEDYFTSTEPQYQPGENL

In the case of `COc1cc(C(=O)/C=C/c2ccc(O)cc2)cc(OC)c1OC`, it took 11.6 µM to reach half-maximal inhibition in data set [1] (IC50). Also, the GI50 came out at 8.5 µM in data set [2] and 4.5 µM in data set [3].

Take `COc1ccc(/C=C/C(=O)c2cc(OC)c(OC)c(OC)c2)cc1OCCN`: half-maximal inhibition in data set [1] (IC50) required 5.9 µM. The results for the concentration for 50% growth inhibition (GI50) in data set [2] and in [3] were 5.6 µM and 3.6 µM, respectively.

On to `COc1cc(O)c(C(=O)/C=C/c2ccccc2Br)c(OC)c1`, for which, in data set [1], the IC50 was > 20 µM.

For `COc1cc(O)c(C(=O)/C=C/c2ccc(F)cc2)c(OC)c1`, the concentration for half-maximal inhibition (IC50) in [1] is > 20 µM.

With `O=C(/C=C/c1ccccc1)c1ccc(F)c(F)c1`, the IC50 in [1] was > 20 µM.

In the case of `COc1ccc(CCC(=O)c2cc(OC)c(OC)c(OC)c2)cc1O`, the half-inhibitory concentration (IC50) in data set [1] is > 20 µM. Besides, the GI50 in [2] turned out to be 17.6 µM; in data set [3], 47 µM.

For `CCCOc1ccc(/C=C/C(=O)c2c(O)cc(OC)cc2OC)cc1`, in data set [1], the IC50 is > 20 µM.

On to `O=C(/C=C/c1ccccc1)c1ccccc1O` [2'-HYDROXYCHALCONE], for which the IC50 in data set [1] is > 20 µM.

On to `O=C(/C=C/c1ccccc1)c1ccc(C(F)(F)F)cc1`, for which the half-maximal inhibitory concentration (IC50) in data set [1] was > 20 µM.

For the compound `COc1ccc(/C=C/C(=O)c2c(O)cc(OC)cc2OC)cc1` [FLAVOKAWAIN A], in data set [1], the concentration for half-maximal inhibition (IC50) is > 20 µM.

On to `O=C(/C=C/c1ccc(O)cc1)c1ccccc1` [4-HYDROXYCHALCONE], for which, in data set [1], the concentration for half-maximal inhibition (IC50) was > 20 µM.

In data set [1], `COc1cc(O)c(C(=O)/C=C/c2cccc(C)c2)c(OC)c1` displayed a 50% inhibitory concentration (IC50) of 17 µM. This counts as double-digit micromolar.

For `COc1cc(O)c(C(=O)/C=C/c2ccc(OC)c(O)c2)c(OC)c1`, the 50% inhibitory concentration (IC50) in data set [1] was > 20 µM.

As for `COc1cc(O)c(C(=O)/C=C/c2cc(OC)c(OC)c(OC)c2)c(OC)c1`, the half-maximal inhibitory concentration (IC50) in data set [1] was > 20 µM.

Turning to `COc1cc(O)c(C(=O)/C=C/c2ccccc2C)c(OC)c1`, the concentration for half-maximal inhibition (IC50) in data set [1] is > 20 µM.

For `Cc1ccc(C(=O)/C=C/c2ccccc2)cc1`, in data set [1], the IC50 is > 20 µM.

In turn, `COc1ccc(/C=C/C(=O)c2cc(OC)c(OC)c(OC)c2)cc1` showed an IC50 in [1] of 19.3 µM. Besides, the GI50 was determined as 12.4 µM in data set [2] and 8.4 µM in data set [3].

With `O=C(/C=C/c1ccccc1)c1ccc(F)cc1`, the IC50 in [1] is > 20 µM.

Consider `COc1cc(C(=O)/C=C/c2ccccc2)cc(OC)c1OC`, for which the IC50 in data set [1] turned out to be 8.9 µM. Also, the 50% growth inhibitory concentration (GI50) was 8.8 µM in data set [2] and 6.6 µM in data set [3].

For the compound `COc1ccc(/C=C/C(=O)c2cc(OC)c(OC)c(OC)c2)cc1O`, the inhibition result in [4], in data set [5], in data set [9] and in data set [11] was “inactive” throughout. The compound further displayed a half-inhibitory concentration (IC50) in [1] of 5.1 µM. Also, the GI50 in data set [2] stood at 2.1 µM; in data set [3] it was 5.2 µM. In addition, the inhibition in data set [6] was found to be 46%; in data set [12] it was 41%. Also, the Activity result in data set [7] is given as “Non-toxic”; in data set [8] it was “Non-toxic”; in [10] it was “Non-toxic”; in data set [13] it was 57%.

As for `COc1cc(O)c(C(=O)/C=C/c2ccc(OC)c(C)c2)c(OC)c1`, the half-inhibitory concentration (IC50) in [1] was > 20 µM.

Regarding `COc1cc(O)c(C(=O)/C=C/c2ccccc2)c(OC)c1` [FLAVOKAWAIN B], the IC50 in [1] is > 20 µM.

Take `O=C(/C=C/c1ccc(O)cc1)c1ccc(O)cc1O` [ISOLIQUIRITIGENIN]: the concentration for half-maximal inhibition (IC50) in data set [1] is > 20 µM.

The compound `COc1ccc(/C=C/C(=O)c2cc(OC)c(O)c(OC)c2)cc1O` showed an IC50 in data set [1] of 14.7 µM. Also, the concentration for 50% growth inhibition (GI50) in data set [2] worked out at 4 µM; in data set [3], 7.5 µM.

`COc1cc(C(=O)/C=C/c2cccc(O)c2)cc(OC)c1OC` showed an IC50 in data set [1] of 2.3 µM. Moreover, the GI50 was determined as 1.7 µM in data set [2] and 4.2 µM in data set [3].

Consider `O=C(/C=C/c1ccc(O)c(O)c1)c1ccc(O)cc1O` [BUTEIN], for which, in [1], the half-maximal inhibitory concentration (IC50) is > 20 µM.

In data set [1], `COc1cc(C(=O)/C=C/c2ccc(O)c(O)c2)cc(OC)c1OC` gave an IC50 of 1.9 µM. Besides, the GI50 is 2.6 µM in [2] and 1.1 µM in data set [3].

On to `COc1cc(O)c(C(=O)/C=C/c2ccc(Cl)cc2)c(OC)c1`, for which the IC50 in [1] is > 20 µM.

Compound `COc1ccc(/C=C/C(=O)c2cc(OC)c(OC)c(OC)c2)cc1OCCO` registered an IC50 in data set [1] of 9.1 µM. In addition, the GI50 in data set [2] came to 4.7 µM; in data set [3], 3.3 µM.

In the case of `COc1ccc(/C=C/C(=O)c2ccc(OC)c(OC)c2)cc1O`, in data set [1], the concentration for half-maximal inhibition (IC50) was 8 µM. The 50% growth inhibitory concentration (GI50) in [2] stood at 5.2 µM; in data set [3] it was 4.6 µM.

`COc1cc(O)c(C(=O)/C=C/c2cccc(Br)c2)c(OC)c1`: in data set [1], inhibition was half-maximal at 12.3 µM (IC50).

In [1], `COc1cc(OC)cc(C(=O)/C=C/c2ccc(OC)c(O)c2)c1` returned an IC50 of 8.1 µM. Also, the GI50 in [2] was found to be 3.3 µM; in [3], 2.3 µM.

As for `O=C(/C=C/c1ccccc1)c1ccccc1` [CHALCONE], the IC50 in data set [1] is > 20 µM.

What is called IC50 is the concentration that gives 50% inhibition. As a reminder, the GI50 is the concentration giving 50% growth inhibition. Higher therefore signals less potent growth inhibition. The inhibition is the percentage by which the read-out fell short of the control.
